# From ChEMBL document CHEMBL4507326, “Data for DCP probe TP-030-2” (2021)
# The source made the active and inactive calls. The calls are words filed in the database; no cut-off is given here.
# Key:
# [1] = target: Dual specificity tyrosine-phosphorylation-regulated kinase 4 (Homo sapiens, UniProt Q9NR20); test: DYRK4(DYR4LHY1) Takeda global kinase panel
# [2] = target: Serine/threonine-protein kinase D1 (Homo sapiens, UniProt Q15139); test: PKD1(PRD1LHY1) Takeda global kinase panel
# [3] = target: Tyrosine-protein kinase JAK3 (Homo sapiens, UniProt P52333); test: JAK3(JAK3LGRG) Takeda global kinase panel
# [4] = target: Serine/threonine-protein kinase SBK1 (Homo sapiens, UniProt Q52WX2); test: SBK(SBK1LGY1) Takeda global kinase panel
# Sequence of Serine/threonine-protein kinase SBK1 (Q52WX2 whole entry): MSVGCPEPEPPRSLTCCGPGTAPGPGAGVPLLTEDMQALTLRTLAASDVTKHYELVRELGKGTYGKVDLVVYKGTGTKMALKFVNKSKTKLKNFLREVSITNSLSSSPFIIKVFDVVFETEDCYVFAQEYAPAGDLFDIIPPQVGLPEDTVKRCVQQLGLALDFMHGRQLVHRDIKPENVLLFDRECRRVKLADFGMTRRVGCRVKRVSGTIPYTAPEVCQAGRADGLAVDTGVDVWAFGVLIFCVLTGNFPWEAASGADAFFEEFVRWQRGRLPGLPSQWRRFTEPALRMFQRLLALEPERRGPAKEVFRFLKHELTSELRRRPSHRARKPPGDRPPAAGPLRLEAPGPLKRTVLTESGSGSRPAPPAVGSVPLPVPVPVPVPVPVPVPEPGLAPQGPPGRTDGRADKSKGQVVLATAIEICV
# [5] = target: D(1A) dopamine receptor (Homo sapiens) (UniProt P21728); conditions: Compound concentration 10.0 uM
# [6] = target: Beta-adrenergic receptor kinase 1 (Homo sapiens, UniProt P25098); test: BARK1 [GRK2(ADR1LGG5)] Takeda global kinase panel
# [7] = target: Receptor-interacting serine/threonine-protein kinase 2 (Homo sapiens, UniProt O43353); test: RIPK2(RIP2LGI1) Takeda global kinase panel
# [8] = target: Tyrosine-protein kinase Tec (Homo sapiens, UniProt P42680); test: TEC(TEC1CGD1) Takeda global kinase panel
# Sequence of Tyrosine-protein kinase Tec (P42680 whole entry): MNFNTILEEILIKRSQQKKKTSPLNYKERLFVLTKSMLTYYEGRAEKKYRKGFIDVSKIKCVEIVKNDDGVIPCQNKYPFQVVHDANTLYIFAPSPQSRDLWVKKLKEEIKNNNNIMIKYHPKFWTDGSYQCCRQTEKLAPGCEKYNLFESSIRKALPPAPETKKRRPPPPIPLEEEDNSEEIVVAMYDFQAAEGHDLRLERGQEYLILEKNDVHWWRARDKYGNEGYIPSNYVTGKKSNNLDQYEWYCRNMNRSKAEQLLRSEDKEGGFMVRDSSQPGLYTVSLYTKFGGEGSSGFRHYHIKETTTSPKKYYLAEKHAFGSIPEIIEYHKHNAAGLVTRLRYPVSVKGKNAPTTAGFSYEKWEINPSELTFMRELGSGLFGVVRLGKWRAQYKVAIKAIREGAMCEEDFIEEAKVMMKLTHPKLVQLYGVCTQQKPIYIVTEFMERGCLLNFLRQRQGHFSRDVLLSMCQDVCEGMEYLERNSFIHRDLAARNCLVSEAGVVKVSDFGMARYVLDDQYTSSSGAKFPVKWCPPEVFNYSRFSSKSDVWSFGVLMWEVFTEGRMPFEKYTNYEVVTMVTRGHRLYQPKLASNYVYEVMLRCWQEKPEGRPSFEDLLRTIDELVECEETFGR
# [9] = target: Inhibitor of nuclear factor kappa-B kinase subunit epsilon (Homo sapiens, UniProt Q14164); test: IKKepsilon(IKBELGY1) Takeda global kinase panel
# Sequence of Inhibitor of nuclear factor kappa-B kinase subunit epsilon (Q14164 whole entry): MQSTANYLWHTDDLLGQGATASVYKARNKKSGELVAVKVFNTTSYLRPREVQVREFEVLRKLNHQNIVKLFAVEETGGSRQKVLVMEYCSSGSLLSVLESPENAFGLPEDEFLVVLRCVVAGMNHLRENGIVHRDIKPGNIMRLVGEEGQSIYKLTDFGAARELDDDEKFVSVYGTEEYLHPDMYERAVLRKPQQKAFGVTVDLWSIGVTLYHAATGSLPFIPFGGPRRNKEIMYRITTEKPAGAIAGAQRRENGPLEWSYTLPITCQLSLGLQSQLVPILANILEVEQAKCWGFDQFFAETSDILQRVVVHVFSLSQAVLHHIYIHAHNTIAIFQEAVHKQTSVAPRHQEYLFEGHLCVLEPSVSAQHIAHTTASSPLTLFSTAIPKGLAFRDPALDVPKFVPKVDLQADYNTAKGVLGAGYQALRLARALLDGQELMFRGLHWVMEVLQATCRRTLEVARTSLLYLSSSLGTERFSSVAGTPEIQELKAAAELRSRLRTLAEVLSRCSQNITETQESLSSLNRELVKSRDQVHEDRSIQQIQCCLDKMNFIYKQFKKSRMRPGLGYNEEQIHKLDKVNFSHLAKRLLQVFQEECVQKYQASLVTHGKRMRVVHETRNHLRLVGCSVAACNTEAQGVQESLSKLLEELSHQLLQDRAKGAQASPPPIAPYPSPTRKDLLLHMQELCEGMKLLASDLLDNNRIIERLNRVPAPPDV
# Ephrin type-A receptor 8 = Ephrin type-A receptor 8 (Homo sapiens, UniProt P29322); test: EphA8(EPA8LGF1) Takeda global kinase panel
# [10] = target: Serine/threonine-protein kinase ULK3 (Homo sapiens, UniProt Q6PHR2); test: ULK3(ULK3LGF1) Takeda global kinase panel
# [11] = target: Dual specificity tyrosine-phosphorylation-regulated kinase 1B (Homo sapiens, UniProt Q9Y463); test: DYRK1B(DY1BLHY1) Takeda global kinase panel
# [12] = target: Protein kinase C alpha type (Homo sapiens, UniProt P17252); test: PKCalpha(PRKALGY1) Takeda global kinase panel
# Wee1-like protein kinase = Wee1-like protein kinase (Homo sapiens, UniProt P30291); test: Wee1(WEE1LGF1) Takeda global kinase panel
# HT-29 = test: HT29 necroptosis assay; format: functional, cell-based; conditions: Homo sapiens
# [13] = target: Tyrosine-protein kinase Srms (Homo sapiens, UniProt Q9H3Y6); test: Srm(SRMSLGY1) Takeda global kinase panel
# [14] = target: Serine/threonine-protein kinase VRK2 (Homo sapiens, UniProt Q86Y07); test: VRK2(VRK2LGRI) Takeda global kinase panel
# [15] = target: Dual specificity protein kinase CLK2 (Homo sapiens, UniProt P49760); test: CLK2(CLK2LGF1) Takeda global kinase panel
# [16] = target: Homeodomain-interacting protein kinase 2 (Homo sapiens, UniProt Q9H2X6); test: HIPK2(HIP2LGY1) Takeda global kinase panel
# [17] = target: Activin receptor type-1-like (Homo sapiens, UniProt P37023); test: ALK1(ACL1LGF1) Takeda global kinase panel
# [18] = target: Cyclin-dependent kinase 8 (Homo sapiens, UniProt P49336); test: CDK8(CDK8CGS1) Takeda global kinase panel
# LIM domain kinase 2 = LIM domain kinase 2 (Homo sapiens, UniProt P53671); test: LIMK2(LIM2LGV1) Takeda global kinase panel
# Sequence of LIM domain kinase 2 (P53671 whole entry, the tested form may be a part): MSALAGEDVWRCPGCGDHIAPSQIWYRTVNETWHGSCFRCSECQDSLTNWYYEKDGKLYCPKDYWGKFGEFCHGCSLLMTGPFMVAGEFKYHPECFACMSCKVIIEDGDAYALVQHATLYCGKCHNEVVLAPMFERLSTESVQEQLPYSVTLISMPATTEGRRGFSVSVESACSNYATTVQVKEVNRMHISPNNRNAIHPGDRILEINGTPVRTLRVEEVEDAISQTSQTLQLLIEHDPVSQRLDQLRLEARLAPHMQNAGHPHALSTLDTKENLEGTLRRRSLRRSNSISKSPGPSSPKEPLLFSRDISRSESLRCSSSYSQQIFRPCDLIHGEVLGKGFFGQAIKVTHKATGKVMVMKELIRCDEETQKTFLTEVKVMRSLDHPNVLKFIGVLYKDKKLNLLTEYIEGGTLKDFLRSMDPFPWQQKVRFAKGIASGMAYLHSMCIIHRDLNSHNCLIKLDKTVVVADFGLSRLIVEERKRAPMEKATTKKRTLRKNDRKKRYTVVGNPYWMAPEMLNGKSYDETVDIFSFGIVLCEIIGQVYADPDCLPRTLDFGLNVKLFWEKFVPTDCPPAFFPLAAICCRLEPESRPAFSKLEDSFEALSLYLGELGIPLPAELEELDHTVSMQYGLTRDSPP
# [19] = target: GABA-A receptor; anion channel (Rattus norvegicus) (UniProt O09028+P15431+P18506+P18508+P19969+P20236+P23574+P23576+P28471+P28473+P30191+P62813+P63079+P63138+Q91ZM7+Q9ES14); conditions: Compound concentration 10.0 uM
# [20] = target: Serine/threonine-protein kinase Nek8 (Homo sapiens, UniProt Q86SG6); test: Nek8(NEK8LGRI) Takeda global kinase panel
# Sequence of Serine/threonine-protein kinase Nek8 (Q86SG6 whole entry): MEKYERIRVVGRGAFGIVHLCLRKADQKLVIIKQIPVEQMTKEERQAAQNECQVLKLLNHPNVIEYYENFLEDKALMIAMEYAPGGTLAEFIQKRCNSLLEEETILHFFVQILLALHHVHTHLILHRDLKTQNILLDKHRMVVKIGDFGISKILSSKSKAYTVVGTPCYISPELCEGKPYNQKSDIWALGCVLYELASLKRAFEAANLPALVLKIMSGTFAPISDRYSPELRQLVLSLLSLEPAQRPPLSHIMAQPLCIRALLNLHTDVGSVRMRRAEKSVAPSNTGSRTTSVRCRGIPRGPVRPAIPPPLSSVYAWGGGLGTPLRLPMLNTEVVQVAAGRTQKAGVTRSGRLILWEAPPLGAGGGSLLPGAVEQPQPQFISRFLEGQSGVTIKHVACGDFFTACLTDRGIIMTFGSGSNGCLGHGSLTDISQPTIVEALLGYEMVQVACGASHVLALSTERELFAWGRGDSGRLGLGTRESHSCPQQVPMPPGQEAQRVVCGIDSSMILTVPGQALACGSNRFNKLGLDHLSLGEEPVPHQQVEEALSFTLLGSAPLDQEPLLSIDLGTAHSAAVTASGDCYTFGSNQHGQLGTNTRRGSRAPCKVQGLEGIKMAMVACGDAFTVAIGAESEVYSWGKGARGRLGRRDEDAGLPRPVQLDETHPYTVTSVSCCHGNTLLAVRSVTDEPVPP
# [21] = target: Protein kinase C iota type (Homo sapiens, UniProt P41743); test: PKCiota(PRKILGRD) Takeda global kinase panel
# Sequence of Protein kinase C iota type (P41743 whole entry): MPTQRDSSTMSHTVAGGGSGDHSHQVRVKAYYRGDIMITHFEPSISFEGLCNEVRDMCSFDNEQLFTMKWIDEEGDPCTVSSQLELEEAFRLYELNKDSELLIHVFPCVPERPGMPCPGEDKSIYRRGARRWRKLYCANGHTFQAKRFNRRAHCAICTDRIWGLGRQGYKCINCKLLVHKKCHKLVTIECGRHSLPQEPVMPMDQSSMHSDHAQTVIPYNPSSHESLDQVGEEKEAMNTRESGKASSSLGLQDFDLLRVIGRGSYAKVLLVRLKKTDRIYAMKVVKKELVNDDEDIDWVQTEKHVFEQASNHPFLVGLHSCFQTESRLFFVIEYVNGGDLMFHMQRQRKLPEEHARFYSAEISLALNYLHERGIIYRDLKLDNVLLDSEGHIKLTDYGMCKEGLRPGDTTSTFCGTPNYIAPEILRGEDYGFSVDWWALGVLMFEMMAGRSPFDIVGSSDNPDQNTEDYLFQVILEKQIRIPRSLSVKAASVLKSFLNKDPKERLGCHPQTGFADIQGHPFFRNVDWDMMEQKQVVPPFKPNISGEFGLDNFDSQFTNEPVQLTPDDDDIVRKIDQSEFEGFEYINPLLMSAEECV
# [22] = target: Serine/threonine-protein kinase PINK1, mitochondrial (Homo sapiens, UniProt Q9BXM7); test: PINK1(PIN1PHRE) Takeda global kinase panel
# [23] = target: RAC-gamma serine/threonine-protein kinase (Homo sapiens, UniProt Q9Y243); test: Akt3 [PKBgamma(AKT3LGY1)] Takeda global kinase panel
# [24] = target: Glutamate NMDA receptor (Rattus norvegicus) (UniProt P35439+Q00959+Q00960+Q00961+Q62645+Q8VHN2+Q9R1M7); conditions: Compound concentration 10.0 uM
# [25] = target: Serine/threonine-protein kinase 24 (Homo sapiens, UniProt Q9Y6E0); test: MST3(ST24LGC1) Takeda global kinase panel
# [26] = target: Maternal embryonic leucine zipper kinase (Homo sapiens, UniProt Q14680); test: MELK(MELKLGF1) Takeda global kinase panel
# [27] = target: Dual specificity protein kinase CLK3 (Homo sapiens, UniProt P49761); test: CLK3(CLK3LGY1) Takeda global kinase panel
# [28] = target: Cyclin-dependent kinase 18 (Homo sapiens, UniProt Q07002); test: PCTAIRE3(CD18SGS1) Takeda global kinase panel
# [29] = target: 5-hydroxytryptamine receptor 2C (Homo sapiens) (UniProt P28335); conditions: Compound concentration 10.0 uM
# [30] = target: Mitogen-activated protein kinase 11 (Homo sapiens, UniProt Q15759); test: p38beta(MP11LGI1) Takeda global kinase panel
# Sequence of Mitogen-activated protein kinase 11 (Q15759 whole entry, canonical isoform): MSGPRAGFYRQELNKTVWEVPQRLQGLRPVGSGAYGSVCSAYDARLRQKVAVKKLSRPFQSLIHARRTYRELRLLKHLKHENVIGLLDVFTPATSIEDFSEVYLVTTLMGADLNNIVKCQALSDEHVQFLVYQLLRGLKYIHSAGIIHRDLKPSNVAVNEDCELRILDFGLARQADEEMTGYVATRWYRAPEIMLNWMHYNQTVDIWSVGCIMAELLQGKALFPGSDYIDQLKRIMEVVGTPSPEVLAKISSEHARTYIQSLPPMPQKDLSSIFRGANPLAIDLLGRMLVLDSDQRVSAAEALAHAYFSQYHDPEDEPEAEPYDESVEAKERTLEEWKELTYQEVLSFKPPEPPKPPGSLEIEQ
# [31] = target: Casein kinase I isoform gamma-3 (Homo sapiens, UniProt Q9Y6M4); test: CK1gamma3(C1G3LGI5) Takeda global kinase panel
# [32] = target: Dual specificity mitogen-activated protein kinase kinase 6 (Homo sapiens, UniProt P52564); test: MKK6 [MAP2K6(M2K6LGF1)] Takeda global kinase panel
# [33] = target: Cyclin-dependent kinase 17 (Homo sapiens, UniProt Q00537); test: PCTAIRE2(CD17SGS1) Takeda global kinase panel
# [34] = target: Peripheral plasma membrane protein CASK (Homo sapiens, UniProt O14936); test: CASK(CASKLGY1) Takeda global kinase panel
# [35] = target: Protein-tyrosine kinase 2-beta (Homo sapiens, UniProt Q14289); test: PYK2(PT2BLHF1) Takeda global kinase panel
# [36] = target: Interleukin-1 receptor-associated kinase 4 (Homo sapiens, UniProt Q9NWZ3); test: IRAK4(IRK4LGF1) Takeda global kinase panel
# [37] = target: Serine/threonine-protein kinase N2 (Homo sapiens, UniProt Q16513); test: PKN2 [PRK2(PKN2LGG5)] Takeda global kinase panel
# Sequence of Serine/threonine-protein kinase N2 (Q16513 whole entry): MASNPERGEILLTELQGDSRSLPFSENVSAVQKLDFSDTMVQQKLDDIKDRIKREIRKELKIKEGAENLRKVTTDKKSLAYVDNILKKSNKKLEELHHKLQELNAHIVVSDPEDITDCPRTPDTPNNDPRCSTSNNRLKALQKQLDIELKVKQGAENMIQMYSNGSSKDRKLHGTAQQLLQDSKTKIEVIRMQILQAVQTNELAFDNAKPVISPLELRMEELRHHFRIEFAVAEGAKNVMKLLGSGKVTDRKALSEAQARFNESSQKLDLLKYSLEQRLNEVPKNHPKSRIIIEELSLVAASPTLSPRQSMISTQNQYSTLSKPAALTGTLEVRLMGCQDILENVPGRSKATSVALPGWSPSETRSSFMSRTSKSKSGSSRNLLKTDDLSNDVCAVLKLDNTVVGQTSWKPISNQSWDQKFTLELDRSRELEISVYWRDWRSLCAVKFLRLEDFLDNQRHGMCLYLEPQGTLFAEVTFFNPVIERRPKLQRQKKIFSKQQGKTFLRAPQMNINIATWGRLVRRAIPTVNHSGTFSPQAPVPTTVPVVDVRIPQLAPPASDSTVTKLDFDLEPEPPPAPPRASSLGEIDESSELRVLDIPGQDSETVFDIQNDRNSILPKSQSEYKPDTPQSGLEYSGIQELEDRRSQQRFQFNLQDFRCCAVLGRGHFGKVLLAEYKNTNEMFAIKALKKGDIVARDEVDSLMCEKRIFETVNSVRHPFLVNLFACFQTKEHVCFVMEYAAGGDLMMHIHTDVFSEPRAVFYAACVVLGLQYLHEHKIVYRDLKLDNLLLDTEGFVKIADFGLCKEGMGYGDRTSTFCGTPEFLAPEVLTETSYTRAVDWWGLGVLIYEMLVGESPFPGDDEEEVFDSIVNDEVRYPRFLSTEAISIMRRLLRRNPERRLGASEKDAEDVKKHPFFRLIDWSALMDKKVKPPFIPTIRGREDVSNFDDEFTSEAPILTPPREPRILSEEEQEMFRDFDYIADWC
# [38] = target: Estrogen receptor (Homo sapiens) (UniProt P03372); conditions: Compound concentration 10.0 uM
smiles,measurement,setting,value
CN1C(=O)[C@@H](N2CCc3c(nn(Cc4ccccc4)c3Br)C2=O)COc2ccccc21 [TP-030-2],IC50,[1],1000 nM
same,IC50,[2],1000 nM
same,IC50,[3],1000 nM
same,IC50,[4],1000 nM
same,inhibition,[5],16.1%
same,IC50,[6],1000 nM
same,IC50,[7],1000 nM
same,IC50,[8],1000 nM
same,IC50,[9],1000 nM
same,IC50,Ephrin type-A receptor 8,1000 nM
same,IC50,[10],1000 nM
same,IC50,[11],1000 nM
same,IC50,[12],1000 nM
same,IC50,Wee1-like protein kinase,1000 nM
same,IC50,HT-29,1.3 nM (active)
same,IC50,[13],1000 nM
same,IC50,[14],1000 nM
same,IC50,[15],1000 nM
same,IC50,[16],1000 nM
same,IC50,[17],1000 nM
same,IC50,[18],1000 nM
same,IC50,LIM domain kinase 2,1000 nM
same,inhibition,[19],8.81%
same,IC50,[20],1000 nM
same,IC50,[21],1000 nM
same,IC50,[22],1000 nM
same,IC50,[23],1000 nM
same,inhibition,[24],6%
same,IC50,[25],1000 nM
same,IC50,[26],1000 nM
same,IC50,[27],1000 nM
same,IC50,[28],1000 nM
same,inhibition,[29],2.4%
same,IC50,[30],1000 nM
same,IC50,[31],1000 nM
same,IC50,[32],1000 nM
same,IC50,[33],1000 nM
same,IC50,[34],1000 nM
same,IC50,[35],1000 nM
same,IC50,[36],1000 nM
same,IC50,[37],1000 nM
same,inhibition,[38],10%
